Test results from patent US8791132B2, “Compounds and methods for treatment of hypertension” (Medivation Technologies, Inc., priority 2011, dated 2014).
Several values for one entry are separate records, joined by “and”; a condition that tells them apart may be missing. Equal entries are not always repeated. Where two headings read alike, the source gives them in different places.

Experiments:
[1] = target: T1, human recombinant adrenergic α2B receptor (Homo sapiens, UniProt P18089); assay: Radioligand binding, adrenergic α2B ([3H]Rauwolscine); conditions: for Ki: read-out: Ki α2B; for inhibition at 0.1 µM: read-out: Percentage inhibition of ligand binding, Adrenergic α2B (0.1 μM), compound at 0.1 μM
T1 construct: expressed in transfected cells; host or cells: CHO-K1
T1 sequence (P18089 1-450): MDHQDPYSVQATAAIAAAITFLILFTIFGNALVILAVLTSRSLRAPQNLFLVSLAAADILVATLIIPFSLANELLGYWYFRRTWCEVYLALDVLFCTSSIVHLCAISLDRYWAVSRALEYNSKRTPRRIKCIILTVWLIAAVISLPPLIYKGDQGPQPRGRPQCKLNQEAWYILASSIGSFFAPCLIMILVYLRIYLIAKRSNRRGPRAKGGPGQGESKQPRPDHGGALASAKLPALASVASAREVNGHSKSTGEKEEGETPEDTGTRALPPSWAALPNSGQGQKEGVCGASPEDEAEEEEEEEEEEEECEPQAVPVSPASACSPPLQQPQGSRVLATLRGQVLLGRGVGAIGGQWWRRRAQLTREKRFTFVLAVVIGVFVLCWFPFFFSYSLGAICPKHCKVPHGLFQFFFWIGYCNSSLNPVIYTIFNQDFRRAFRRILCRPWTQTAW
Method in brief: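 Readout: percent inhibition of specific [3H]Rauwolscine binding, measured by filtration and counting. Conditions: CHO-K1 cell-expressed receptor, 2.5 nM radioligand, 60 min, 25° C, Tris-HCl pH 7.4 buffer with MgCl2, EDTA, BSA. Non-specific binding: 10 μM Prazosin.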

[2] = target: T2, human recombinant adrenergic α2A receptor (Homo sapiens, UniProt P08913); assay: Radioligand binding, adrenergic α2A ([3H]MK-912); conditions: for Percentage inhibition of ligand binding, Adrenergic α2A / Percentage inhibition of ligand binding, Adrenergic α2A (0.1 μM): 0.1 µM
T2 construct: expressed in transfected cells; host or cells: insect Sf9 cells
T2 sequence (P08913 1-465): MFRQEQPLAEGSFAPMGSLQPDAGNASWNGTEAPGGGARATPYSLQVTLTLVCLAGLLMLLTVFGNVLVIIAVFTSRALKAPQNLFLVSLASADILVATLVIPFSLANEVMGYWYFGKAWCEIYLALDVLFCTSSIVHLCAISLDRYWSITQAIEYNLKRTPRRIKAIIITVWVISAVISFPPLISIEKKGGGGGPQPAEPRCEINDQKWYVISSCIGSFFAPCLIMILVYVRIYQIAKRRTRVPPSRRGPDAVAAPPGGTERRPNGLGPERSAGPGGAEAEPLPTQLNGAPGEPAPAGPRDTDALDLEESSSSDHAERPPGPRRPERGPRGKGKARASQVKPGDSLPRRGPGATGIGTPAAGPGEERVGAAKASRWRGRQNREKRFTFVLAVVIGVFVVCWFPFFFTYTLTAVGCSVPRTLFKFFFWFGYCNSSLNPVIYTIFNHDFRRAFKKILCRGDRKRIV
Method in brief: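 Sf9-expressed receptor was incubated with compound for 60 min at 25 °C in modified Tris-HCl buffer, pH 7.4. Nonspecific binding was taken as that remaining with 10 μM WB-4101.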

[3] = target: T3, rat adrenergic α1B receptor (Rattus norvegicus, UniProt P15823); assay: Radioligand binding, adrenergic α1B ([3H]Prazosin); conditions: for Percentage inhibition of ligand binding, Adrenergic α1B / Percentage inhibition of ligand binding, Adrenergic α1B (0.1 μM): 0.1 µM; for inhibition at 0.03 µM: read-out: Percentage inhibition of ligand binding, Adrenergic α1B (0.03 μM), compound at 0.03 μM
T3 construct: rat adrenergic α1B receptor obtained from Wistar Rat liver; from tissue; host or cells: Wistar rat liver
T3 sequence (P15823 1-515): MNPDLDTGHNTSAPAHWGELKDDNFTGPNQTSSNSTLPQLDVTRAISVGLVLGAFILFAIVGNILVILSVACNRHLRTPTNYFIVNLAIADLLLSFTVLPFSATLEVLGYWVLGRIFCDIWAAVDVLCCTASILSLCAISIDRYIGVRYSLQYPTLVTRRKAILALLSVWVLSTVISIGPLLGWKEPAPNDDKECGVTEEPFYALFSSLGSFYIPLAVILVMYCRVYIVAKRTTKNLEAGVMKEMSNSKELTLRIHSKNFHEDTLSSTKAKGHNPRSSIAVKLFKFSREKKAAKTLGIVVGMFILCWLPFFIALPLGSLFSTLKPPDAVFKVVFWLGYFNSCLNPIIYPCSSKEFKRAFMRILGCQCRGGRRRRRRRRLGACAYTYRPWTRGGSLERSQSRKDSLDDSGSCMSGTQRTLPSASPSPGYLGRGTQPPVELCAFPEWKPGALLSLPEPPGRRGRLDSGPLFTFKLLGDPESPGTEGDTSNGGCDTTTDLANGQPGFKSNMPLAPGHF
Method in brief: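 Filter binding with Wistar rat liver α1B preparation: test compound plus 0.25 nM [3H]prazosin, 1 h at 25° C in modified Tris-HCl buffer pH 7.4.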

[4] = compound at 0.03 μM, [3H]Rauwolscine, repeat assays, each datapoint shown, 0.03 µM
[5] = compound at 0.1 μM, [3H]MK-912, repeat assays, each datapoint shown
[6] = compound at 0.1 μM, [3H]Prazosin, repeat assays, each datapoint shown
[7] = compound at 0.03 μM, [3H]Rauwolscine, repeat datapoints each shown, 0.03 µM
[8] = read-out: Percentage inhibition of ligand binding, Adrenergic α2B (0.03 μM), compound at 0.03 μM, [3H]Rauwolscine, repeat datapoints each shown
[9] = [3H]Rauwolscine, repeat datapoints each shown
[10] = read-out: Percentage inhibition of ligand binding, Adrenergic α2A (0.1 μM), compound at 0.1 μM, [3H]MK-912, repeat datapoints each shown
[11] = compound at 0.1 μM, [3H]Prazosin, repeat datapoints each shown
[12] = [3H]Prazosin, repeat datapoints each shown
[13] = read-out: Percentage inhibition of ligand binding, Adrenergic α1B (0.1 μM), compound at 0.1 μM, [3H]Prazosin, repeat datapoints each shown
[14] = compound at 0.1 μM, [3H]MK-912, repeat datapoints each shown

CN1CCc2c(c3ccc(C(F)(F)F)cc3n2CC(O)c2cccnc2)C1 (single isomer, unassigned) [40b]
Percentage inhibition of ligand binding, Adrenergic α2B [1, 4]: 29% | Percentage inhibition of ligand binding, Adrenergic α2A [2, 5]: 13% | Percentage inhibition of ligand binding, Adrenergic α1B [3, 6]: −2%

Cc1ccc2c(c1)c1c(n2CC(C)(O)c2cccnc2)CCN(C)CC1 (single isomer, unassigned) [II-135b, 1-(3,9-dimethyl-2,3,4,5-tetrahydroazepino[4,5-b]indol-6(1H)-yl)-2-(pyridin-3-yl)propan-2-ol]
Percentage inhibition of ligand binding, Adrenergic α2B (0.03 μM) [1, 7]: 105% | Ki [1]: 0.53 nM | inhibition at 0.03 µM [1, 8]: 103% | inhibition at 0.1 µM [1, 9]: 105% | inhibition at 0.1 µM [2, 10]: 40% | Percentage inhibition of ligand binding, Adrenergic α1B (0.1 μM) [3, 11]: 70% | inhibition at 0.03 µM [3, 12]: 26% | inhibition at 0.1 µM [3, 13]: 60%

CN1CCc2c(n(CC(C)(O)c3cccnc3)c3ccc(Cl)cc23)C1 (single isomer, unassigned) [28a]
Percentage inhibition of ligand binding, Adrenergic α2B [1, 4]: 96% | inhibition at 0.1 µM ([2]; compound at 0.1 μM, [3H]MK-912, repeat assays, each datapoint shown, read-out: Percentage inhibition of ligand binding, Adrenergic α2A): 28% | Percentage inhibition of ligand binding, Adrenergic α1B [3, 6]: 41%

Cc1ccc2c(c1)c1c(n2CC(O)c2ccncc2C)CCN(C)C1 (single isomer, unassigned) [133b]
Percentage inhibition of ligand binding, Adrenergic α2B (0.03 μM) [1, 7]: 88% | Ki [1]: 2.42 nM | inhibition at 0.03 µM [1, 8]: 87% | inhibition at 0.1 µM [1, 9]: 94% | Ki [2]: 59.5 nM | Percentage inhibition of ligand binding, Adrenergic α2A (0.1 μM) [2, 14]: 39% | inhibition at 0.03 µM ([2]; read-out: Percentage inhibition of ligand binding, Adrenergic α2A (0.03 μM), compound at 0.03 μM, [3H]MK-912, repeat datapoints each shown): 27% | inhibition at 0.1 µM [2, 10]: 34% | Percentage inhibition of ligand binding, Adrenergic α1B (0.1 μM) [3, 11]: 42% | inhibition at 0.03 µM [3, 12]: 16% | inhibition at 0.1 µM [3, 13]: 40%

CC(=O)NC(Cn1c2c(c3cc(C)ccc31)CN(C)CC2)c1ccncc1 (single isomer, unassigned) [II-1b, N-(2-(1,2,3,4-tetrahydro-2,8-dimethylpyrido[4,3-b]indol-5-yl)-1-(pyridin-4-yl)ethyl)acetamide]
Percentage inhibition of ligand binding, Adrenergic α2B ([1]; 0.03 μM compound, 0.03 µM): 32% | Percentage inhibition of ligand binding, Adrenergic α2A ([2]; 0.1 μM compound): 1% | Percentage inhibition of ligand binding, Adrenergic α1B ([3]; 0.1 μM compound): −7%

Cc1ccc2c(c1)c1c(n2CC(OC(=O)C(C)C)c2ccncc2)CCN(C)C1 (single isomer, unassigned) [54a, 2-(1,2,3,4-tetrahydro-2,8-dimethylpyrido[4,3-b]indol-5-yl)-1-(pyridin-4-yl)ethyl isobutyrate]
inhibition at 0.03 µM ([1]; compound at 0.03 μM, [3H]Rauwolscine, repeat assays, each datapoint shown, read-out: Percentage inhibition of ligand binding, Adrenergic α2B): 105% | Percentage inhibition of ligand binding, Adrenergic α2A [2, 5]: 30% | Percentage inhibition of ligand binding, Adrenergic α1B [3, 6]: 39%

Cc1ccc2c(c1)c1c(n2CC(O)c2ccc(C#N)nc2)CCN(C)C1 (stereo not drawn) [compound 140, 5-[2-(2,8-dimethyl-1,2,3,4-tetrahydro-pyrido[4,3-b]indol-5-yl)-1-hydroxy-ethyl]-pyridine-2-carbonitrile]
Percentage inhibition of ligand binding, Adrenergic α2B (0.03 μM) [1, 7]: 49% | Percentage inhibition of ligand binding, Adrenergic α2A (0.1 μM) [2, 14]: −2% | Percentage inhibition of ligand binding, Adrenergic α1B (0.1 μM) [3, 11]: 37%

Cc1ccc2c(c1)c1c(n2CC(CCN)c2ccncc2)CCN(C)C1 (stereo not drawn) [II-231, 4-(2,8-dimethyl-1,2,3,4-tetrahydro-pyrido[4,3-b]indol-5-yl)-3-pyridin-4-yl-butylamine]
inhibition at 0.03 µM [1, 8]: -2% | inhibition at 0.1 µM [2, 10]: 9% | inhibition at 0.1 µM [3, 13]: 11%

Cc1ccc2c(c1)c1c(n2CC(OC(=O)N(C)C)c2ccncc2)CCN(C)C1 (stereo not drawn) [compound 141, N,N-dimethyl-carbamic acid 2-(2,8-dimethyl-1,2,3,4-tetrahydro-pyrido[4,3-b]indol-5-yl)-1-pyridin-4-yl-ethyl ester]
inhibition at 0.03 µM [1, 8]: 76% | Percentage inhibition of ligand binding, Adrenergic α2A (0.1 μM) [2, 14]: 5% | inhibition at 0.1 µM [3, 13]: 23%

Cc1ccc2c(c1)c1c(n2CC(N)c2ccncc2)CCN(C)C1 (single isomer, unassigned) [27b, 2-(1,2,3,4-tetrahydro-2,8-dimethylpyrido[4,3-b]indol-5-yl)-1-(pyridin-4-yl)ethanamine]
Percentage inhibition of ligand binding, Adrenergic α2B [1, 4]: 30% and 36% | Percentage inhibition of ligand binding, Adrenergic α2B ([1]; compound at 0.1 μM, [3H]Rauwolscine, repeat assays, each datapoint shown, 0.1 µM): 48% | Ki [1]: 43.4 nM | Ki [2]: 3710 nM | Percentage inhibition of ligand binding, Adrenergic α1B [3, 6]: 6% and 16%

CCC1c2c(c3cc(C)ccc3n2CC(O)c2ccncc2)C2CCN1C2 (single isomer, unassigned) [36b]
Percentage inhibition of ligand binding, Adrenergic α2B [1, 4]: −1% | Percentage inhibition of ligand binding, Adrenergic α2A [2, 5]: 0% | Percentage inhibition of ligand binding, Adrenergic α1B [3, 6]: 11%

Cc1ccc2c(c1)c1c(n2CC(N)c2ccc(F)cc2)CCN(C)C1 (stereo not drawn) [II-11, 2-(2,8-dimethyl-3,4-dihydro-1H-pyrido[4,3-b]indol-5(2H)-yl)-1-(4-fluorophenyl)ethanamine]
Percentage inhibition of ligand binding, Adrenergic α2B ([1]; 0.03 μM compound, 0.03 µM): 70% | Percentage inhibition of ligand binding, Adrenergic α2A ([2]; 0.1 μM compound): 25% | Percentage inhibition of ligand binding, Adrenergic α1B ([3]; 0.1 μM compound): 63%

C/C(=C\n1c2c(c3cc(C)ccc31)CN(C)CC2)c1ccncc1 [II-2]
inhibition at 0.03 µM ([1]; 0.03 μM compound, read-out: Percentage inhibition of ligand binding, Adrenergic α2B): 96% | inhibition at 0.1 µM ([2]; 0.1 μM compound, read-out: Percentage inhibition of ligand binding, Adrenergic α2A): 49% | inhibition at 0.1 µM ([3]; 0.1 μM compound, read-out: Percentage inhibition of ligand binding, Adrenergic α1B): 74%

Cc1ccc2c(c1)c1c(n2CC(O)c2cnc[nH]2)CCN2CCCC12 (stereo not drawn) [II-140, 1-(1H-imidazol-5-yl)-2-(10-methyl-2,3,5,6-tetrahydro-1H-indolizino[7,8-b]indol-7(11cH)-yl)ethanol]
inhibition at 0.03 µM [1, 8]: 72% | inhibition at 0.1 µM [2, 10]: 3% | inhibition at 0.1 µM [3, 13]: 53%
